Source: US20240174618A1, “SUBSTITUTED (2-HETEROARYLOXYPHENYL)SULFONATES, SALTS THEREOF AND THEIR USE AS HERBICIDAL AGENTS” (Bayer Aktiengesellschaft, priority 2021, published 2024)

Columns and labels:
Assay type in all cases: in vivo
Veronica persica (VERPE) [1] = experiment: A. Herbicidal pre-emergence efficacy, VERPE
Description: (§1) Seeds of mono- and dicotyledonous weed plants were placed in plastic pots in sandy loam soil (doubly sown with one species each of mono- or dicotyledonous weed plants per pot) and covered with soil. The compounds of the invention, formulated in the form of wettable powders (WP) or as emulsion concentrates (EC), were then applied onto the surface of the covering soil as aqueous suspension or emulsion with addition of 0.5% additive at a water application rate of 600 liters per hectare (converted). After the treatment, the pots were placed in a greenhouse and kept under good growth conditions for the test plants. After about 3 weeks, the efficacy of the preparations was scored visually in comparison with untreated controls as percentages.
(§2) For example, • 100% efficacy=plants have died, • 0% efficacy=like untreated control plants.
(§3) Tables A1a to A12c below show the effects of selected compounds of the general formula (I) according to table 1 on various harmful plants at an application rate corresponding to 1280 g/ha or less, which were obtained by the experimental procedure mentioned above.

[2] = tested on: Amaranthus retroflexus (AMARE); experiment: B. Herbicidal post-emergence efficacy, AMARE
Procedure: (§4) Seeds of mono- and dicotyledonous weed plants were placed in plastic pots in sandy loam soil (doubly sown with in each case one species of mono- or dicotyledonous weed plants per pot), covered with soil and cultivated in a greenhouse under controlled growth conditions. 2 to 3 weeks after sowing, the test plants were treated at the one-leaf stage. The compounds of the invention, formulated in the form of wettable powders (WP) or as emulsion concentrates (EC), were applied onto the green parts of the plants as aqueous suspension or emulsion with addition of 0.5% additive at a water application rate of 600 liters per hectare (converted). After the test plants had been kept in the greenhouse under optimum growth conditions for about 3 weeks, the activity of the preparations was rated visually in comparison to untreated controls.
(§5) For example, • 100% efficacy=plants have died, • 0% efficacy=like untreated control plants
(§6) Tables B1a to B12c below show the effects of selected inventive compounds of the general formula (I) according to table 1 on various harmful plants at an application rate corresponding to 1280 g/ha or less, which were obtained by the experimental procedure mentioned above.

Kochia scoparia (KCHSC) [3] = experiment: A. Herbicidal pre-emergence efficacy, KCHSC
Description: as §1, §2, §3

[4] = tested on: Echinochloa crus-galli (ECHCG); experiment: A. Herbicidal pre-emergence efficacy, ECHCG; conditions: scored visually after about 3 weeks vs untreated controls
Description: as §1, §2, §3

Veronica persica (VERPE) [5] = experiment: B. Herbicidal post-emergence efficacy, VERPE
Procedure: as §4, §5, §6

[6] = tested on: Matricaria inodora (MATIN); experiment: A. Herbicidal pre-emergence efficacy, MATIN
Description: as §1, §2, §3

Kochia scoparia (KCHSC) [7] = experiment: B. Herbicidal post-emergence efficacy, KCHSC; conditions: for Post-emergence efficacy against KCHSC in %: rated visually after about 3 weeks; for Post-emergence efficacy against KCHSC: 1280 g/ha
Procedure: as §4, §5, §6

[8] = tested on: Amaranthus retroflexus (AMARE); experiment: A. Herbicidal pre-emergence efficacy, AMARE
Description: as §1, §2, §3

[9] = tested on: Abutilon theophrasti (ABUTH); experiment: A. Herbicidal pre-emergence efficacy, ABUTH; conditions: scored visually after about 3 weeks vs untreated controls
Description: as §1, §2, §3

Poa annua (POAAN) [10] = experiment: A. Herbicidal pre-emergence efficacy, POAAN; conditions: dosage 1280 g/ha
Description: as §1, §2, §3

Setaria viridis (SETVI) = experiment: A. Herbicidal pre-emergence efficacy, SETVI
Description: as §1, §2, §3

[11] = tested on: Echinochloa crus-galli (ECHCG); experiment: B. Herbicidal post-emergence efficacy, ECHCG; conditions: 1280 g/ha, rated visually after about 3 weeks
Procedure: as §4, §5, §6

Poa annua (POAAN) [12] = experiment: B. Herbicidal post-emergence efficacy, POAAN; conditions: 1280 g/ha
Procedure: as §4, §5, §6

[13] = tested on: Abutilon theophrasti (ABUTH); experiment: B. Herbicidal post-emergence efficacy, ABUTH; conditions: rated visually after about 3 weeks
Procedure: as §4, §5, §6

Stellaria media (STEME) [14] = experiment: A. Herbicidal pre-emergence efficacy, STEME
Description: as §1, §2, §3

Stellaria media (STEME) [15] = experiment: B. Herbicidal post-emergence efficacy, STEME
Procedure: as §4, §5, §6

Lolium rigidum (LOLRI) = experiment: A. Herbicidal pre-emergence efficacy, LOLRI; conditions: dosage 1280 g/ha
Description: as §1, §2, §3

[16] = tested on: Digitaria sanguinalis (DIGSA); experiment: A. Herbicidal pre-emergence efficacy, DIGSA; conditions: scored visually after about 3 weeks vs untreated controls
Description: as §1, §2, §3

[17] = pre-emergence, dosage 1280 g/ha
[18] = 320 g/ha, scored visually after about 3 weeks vs untreated controls

| Structure (SMILES) | Pre-emergence efficacy against VERPE in % (Veronica persica (VERPE) [1]; 1280 g/ha) [%] | Post-emergence efficacy against AMARE ([2]; 320 g/ha) [%] | Post-emergence efficacy against AMARE ([2]; 1280 g/ha) [%] | Pre-emergence efficacy against KCHSC (Kochia scoparia (KCHSC) [3]; [17]) [%] | Pre-emergence efficacy against ECHCG ([4]; 1280 g/ha) [%] | Post-emergence efficacy against VERPE (Veronica persica (VERPE) [5]; 320 g/ha) [%] | Post-emergence efficacy against VERPE (Veronica persica (VERPE) [5]; 1280 g/ha) [%] | Pre-emergence efficacy against MATIN [6, 17] [%] | Post-emergence efficacy against KCHSC in % (Kochia scoparia (KCHSC) [7]; 320 g/ha) [%] | Post-emergence efficacy against KCHSC (Kochia scoparia (KCHSC) [7]) [%] | Pre-emergence efficacy against AMARE in % ([8]; 320 g/ha) [%] | Pre-emergence efficacy against AMARE in % ([8]; 1280 g/ha) [%] | Pre-emergence efficacy against ABUTH ([9]; 1280 g/ha) [%] | Pre-emergence efficacy against POAAN (Poa annua (POAAN) [10]) [%] | Pre-emergence efficacy against SETVI (Setaria viridis (SETVI); dosage 320 g/ha) [%] | Pre-emergence efficacy against SETVI (Setaria viridis (SETVI); dosage 1280 g/ha) [%] | Post-emergence efficacy against POAAN (Poa annua (POAAN) [12]) [%] | Post-emergence efficacy against ABUTH in % ([13]; 1280 g/ha) [%] | Pre-emergence efficacy against STEME (Stellaria media (STEME) [14]; dosage 1280 g/ha) [%] | Post-emergence efficacy against STEME (Stellaria media (STEME) [15]; 1280 g/ha) [%] | other results |
| --- | --- | --- | --- | --- | --- | --- | --- | --- | --- | --- | --- | --- | --- | --- | --- | --- | --- | --- | --- | --- | --- |
| CS(=O)(=O)Oc1ccccc1Oc1ncc(Cl)cn1 [Example I-1] | 100 | 100 | 100 | 100 | 100 | 90 | 100 | 100 | 100 | 100 | 100 | 100 | 100 | 90 | 90 | 100 | – | – | – | – | Pre-emergence efficacy against VERPE in % (Veronica persica (VERPE) [1]; 320 g/ha): 100%; Post-emergence efficacy against AMARE ([2]; 80 g/ha): 100%; Pre-emergence efficacy against KCHSC (Kochia scoparia (KCHSC) [3]; pre-emergence, dosage 320 g/ha): 100%; Pre-emergence efficacy against MATIN [6, 18]: 90%; Post-emergence efficacy against KCHSC in % (Kochia scoparia (KCHSC) [7]; 80 g/ha): 90%; Pre-emergence efficacy against AMARE in % ([8]; 80 g/ha): 100% |
| CC(C)S(=O)(=O)Oc1ccccc1Oc1ncc(Cl)cn1 [Example I-18] | 100 | 100 | 100 | – | 100 | 90 | 90 | 90 | 100 | 100 | 100 | 100 | 100 | 90 | – | 90 | 90 | 90 | 90 | 90 | Pre-emergence efficacy against VERPE in % (Veronica persica (VERPE) [1]; 320 g/ha): 90%; Post-emergence efficacy against ECHCG in % [11]: 90%; Pre-emergence efficacy against ECHCG ([4]; 320 g/ha): 90%; Pre-emergence efficacy against ABUTH ([9]; 320 g/ha): 90%; Pre-emergence efficacy against LOLRI (Lolium rigidum (LOLRI)): 90% |
| COCCS(=O)(=O)Oc1ccccc1Oc1ncc(Cl)cn1 [Example I-20] | – | 90 | 100 | 100 | 100 | 90 | 100 | 100 | 90 | 100 | – | 90 | 100 | 90 | 90 | 100 | 90 | 90 | 100 | 100 | Pre-emergence efficacy against KCHSC (Kochia scoparia (KCHSC) [3]; 80 g/ha, scored visually after about 3 weeks vs untreated controls): 90%; Pre-emergence efficacy against KCHSC (Kochia scoparia (KCHSC) [3]; pre-emergence, dosage 320 g/ha): 90%; Pre-emergence efficacy against DIGSA ([16]; 320 g/ha): 100%; Pre-emergence efficacy against DIGSA ([16]; 1280 g/ha): 100%; Pre-emergence efficacy against STEME (Stellaria media (STEME) [14]; dosage 320 g/ha): 100%; Pre-emergence efficacy against ABUTH ([9]; 80 g/ha): 100%; Pre-emergence efficacy against ABUTH ([9]; 320 g/ha): 100%; Pre-emergence efficacy against LOLRI (Lolium rigidum (LOLRI)): 90% |
| O=S(=O)(CCC1CC1(Cl)Cl)Oc1c(F)cccc1Oc1ncc(Cl)cn1 (stereo not drawn) [Example I-51] | 100 | 90 | 90 | 100 | 90 | – | 90 | 90 | – | 90 | 100 | 100 | – | 100 | 90 | 90 | 90 | 90 | 100 | 90 | Post-emergence efficacy against AMARE ([2]; 80 g/ha): 90%; Post-emergence efficacy against ECHCG in % [11]: 90%; Post-emergence efficacy against ABUTH in % ([13]; 320 g/ha): 90%; Pre-emergence efficacy against DIGSA ([16]; 320 g/ha): 90%; Pre-emergence efficacy against DIGSA ([16]; 1280 g/ha): 100%; Pre-emergence efficacy against MATIN [6, 18]: 90%; Pre-emergence efficacy against STEME (Stellaria media (STEME) [14]; dosage 320 g/ha): 90%; Pre-emergence efficacy against AMARE in % ([8]; 80 g/ha): 90%; Post-emergence efficacy against STEME (Stellaria media (STEME) [15]; 80 g/ha): 90%; Post-emergence efficacy against STEME (Stellaria media (STEME) [15]; 320 g/ha): 90%; Pre-emergence efficacy against LOLRI (Lolium rigidum (LOLRI)): 90% |
| O=S(=O)(CCC(F)=C(F)F)Oc1c(Br)cccc1Oc1ncc(Cl)cn1 [Example I-72] | 90 | 100 | 100 | 90 | – | 100 | 100 | – | 100 | 100 | 90 | 100 | 90 | 100 | 90 | 100 | 90 | 100 | 100 | 100 | Pre-emergence efficacy against VERPE in % (Veronica persica (VERPE) [1]; 320 g/ha): 90%; Post-emergence efficacy against AMARE ([2]; 80 g/ha): 100%; Post-emergence efficacy against ECHCG in % [11]: 100%; Post-emergence efficacy against VERPE (Veronica persica (VERPE) [5]; 80 g/ha): 100%; Post-emergence efficacy against ABUTH in % ([13]; 320 g/ha): 90%; Pre-emergence efficacy against DIGSA ([16]; 320 g/ha): 90%; Pre-emergence efficacy against DIGSA ([16]; 1280 g/ha): 100%; Post-emergence efficacy against KCHSC in % (Kochia scoparia (KCHSC) [7]; 80 g/ha): 90%; Pre-emergence efficacy against STEME (Stellaria media (STEME) [14]; dosage 320 g/ha): 90%; Post-emergence efficacy against STEME (Stellaria media (STEME) [15]; 80 g/ha): 90%; Post-emergence efficacy against STEME (Stellaria media (STEME) [15]; 320 g/ha): 100%; Pre-emergence efficacy against LOLRI (Lolium rigidum (LOLRI)): 90% |
